Values after ≈ are worked out from the molar mass of the structure shown. Some results are limits rather than exact numbers.

Series [1] addresses Prostaglandin G/H synthase 2 (Mus musculus, UniProt Q05769). In words: Inhibition of mouse COX-2 in LPS-induced mouse peritoneal macrophage assessed as reduction in PGE2 release incubated for 2 hrs by ELISA.
For series [2], the species on record is Rattus norvegicus. In words: Antiarthritic activity in adjuvant-induced Sprague-Dawley rat. It is filed as functional.
Series [3] deals with Rattus norvegicus. In words: Antiinflammatory activity in Sprague-Dawley rat assessed as inhibition of carrageenan-induced paw edema at 3 mg/kg , po incubated for 1 hr followed by carrageenan addition and measured after 4 hrs relative to control. It is filed as functional.
Series [4] deals with Rattus norvegicus. In words: Antiinflammatory activity in Sprague-Dawley rat assessed as inhibition of carrageenan-induced paw edema at 3 mg/kg , po relative to control. It is filed as functional. In general terms: Carrageenan injected into the paw causes an acute inflammation.
Series [5] can be described thus: Ulcerogenicity in Sprague-Dawley rat assessed as gastric lesions at 50 mg/kg , po bid measured after 4 hrs. It is filed as toxicity, organism-based. Conditions: in vivo.
The target in series [6] is T1, Phospholipase A2 (Apis mellifera, UniProt P00630). In words: Inhibition of bee venom phospholipase A2 preincubated for 1 hr followed by addition of phosphotidylcholine and 1-palmitoyl-2-(1-14C) palmitoyl further incubated for 10 mins and measured after 15 secs by scintillation counting method.
Series [7] has as its target T1, Phospholipase A2. The series can be described thus: Inhibition of bee venom phospholipase A2.
The subject of another series is Candida tropicalis. In words: Antifungal activity against Candida tropicalis 156 assessed as reduction in fungal cell viability measured after 24 and 72 hrs by photometry. It is filed as functional.
The test system of series [8] is Trichophyton mentagrophytes. In words: Antifungal activity against Trichophyton mentagrophytes 445 assessed as reduction in fungal cell viability measured after 72 and 120 hrs by photometry. It is filed as functional.
Series [9] relates to Aspergillus fumigatus. In words: Antifungal activity against Aspergillus fumigatus assessed as reduction in fungal cell viability by broth dilution method. It is filed as functional. (In broth dilution the organism is exposed to a series of concentrations in liquid medium.)
Series [10] concerns Lichtheimia corymbifera. In words: Antifungal activity against Absidia corymbifera assessed as reduction in fungal cell viability by broth dilution method. It is filed as functional.
The subject of another series is Candida albicans. In words: Antifungal activity against Candida albicans ATCC 44859 assessed as reduction in fungal cell viability measured after 24 and 48 hrs by photometry. It is filed as functional.
Another series concerns Trichosporon beigelii. The series can be described thus: Antifungal activity against Trichosporon beigelii 1188 assessed as reduction in fungal cell viability measured after 24 and 72 hrs by photometry. It is filed as functional.
Series [11] has as its system Aspergillus fumigatus. In words: Antifungal activity against Aspergillus fumigatus 231 assessed as reduction in fungal cell viability measured after 24 and 72 hrs by photometry. It is filed as functional.
The next series has as its system Nakaseomyces glabratus. In words: Antifungal activity against Candida glabrata 20/I assessed as reduction in fungal cell viability measured after 24 and 72 hrs by photometry. It is filed as functional.
For series [12], the system named is Lichtheimia corymbifera. In words: Antifungal activity against Absidia corymbifera 272 assessed as reduction in fungal cell viability measured after 24 and 72 hrs by photometry. It is filed as functional.
Another series deals with Pichia kudriavzevii. The series can be described thus: Antifungal activity against Candida krusei E28 assessed as reduction in fungal cell viability measured after 24 and 48 hrs by photometry. It is filed as functional.
Series [13] relates to Bacillus subtilis. In words: Antibacterial activity against Bacillus subtilis assessed as cell viability at 40 ug/ml incubated for 3 days by confocal microscopy. It is filed as functional.
Series [14] relates to Bacillus subtilis. The series can be described thus: Antibiofilm activity in Bacillus subtilis assessed as reduction in biofilm thickness at 40 ug/ml incubated for 3 days by confocal microscopy. It is filed as functional. Details: scale not given: the % may be the effect or the level left.
The next series relates to Escherichia coli. In words: Inhibition of swarming motility of Escherichia coli at 13 ug/cm2. It is filed as functional.
Another series deals with L1210. The series can be described thus: Antiproliferative activity against mouse L1210 cells assessed as reduction in cell viability incubated for 48 hrs by coulter counter method. It is filed as functional, cell-based. The following applies: L1210, 48 h.
The test system of a further series is MOLT-4F. In words: Antiproliferative activity against human MOLT4F cells assessed as reduction in cell viability incubated for 72 hrs by coulter counter method. It is filed as functional, cell-based.
The next series concerns MT4. The series can be described thus: Antiproliferative activity against human MT4 cells assessed as reduction in cell viability. It is filed as functional, cell-based.
Another series has as its system CCRF-CEM. In words: Antiproliferative activity against human CEM cells assessed as reduction in cell viability incubated for 48 hrs by coulter counter method. It is filed as functional, cell-based.
Series [15] deals with Cyclin-dependent kinase 1/cyclin B1 (Homo sapiens, UniProt P06493). The series can be described thus: Inhibition of CDK1/cyclinB (unknown origin). It is filed as protein-complex assay.
In series [16] the target is Glycogen synthase kinase-3 (Homo sapiens, UniProt P49840+P49841). The series can be described thus: Inhibition of GSK3alpha/beta (unknown origin). It is filed as protein assay.
In series [17] the target is Cyclin-dependent kinase 5/CDK5 activator 1 (Homo sapiens, UniProt Q00535). The series can be described thus: Inhibition of CDK5/p25 (unknown origin). It is filed as protein-complex assay.
The test system of series [18] is Rattus norvegicus. The series can be described thus: Antiinflammatory activity in rat assessed as inhibition of carrageenan-induced paw edema at 20 mg/kg , po incubated for 30 mins followed by carrageenan treatment further incubated for 3 hrs by plethysmometer relative to ibuprofen. It is filed as functional.
The test system of series [19] is Rattus norvegicus. In words: Antiinflammatory activity in po dosed Sprague-Dawley rat assessed as inhibition of carrageenan-induced paw edema incubated for one hour followed by carrageenan addition and measured after 3 hrs. It is filed as functional.
The next series has as its target Tyrosinase (Homo sapiens, UniProt P14679). In words: Inhibition of tyrosinase (unknown origin) assessed as reduction in melanin formation.
The nature of series [20]: Ulcerogenicity in Wistar rat assessed as gastric lesions by measuring ulcer severity index at 60 mg/kg , po measured after 17 hrs relative to control. It is filed as toxicity, organism-based. Conditions: in vivo.
Series [21] relates to Rattus norvegicus. In words: Antiinflammatory activity in Wistar rat assessed as inhibition of carrageenan-induced edema measured upto 4 hrs. It is filed as functional.
Series [22] is described as follows: Ulcerogenicity in Wistar rat assessed as gastric lesions. It is filed as toxicity. Conditions: in vivo.
For series [23], the system named is A549. The series can be described thus: Antitumor activity against human A549 cells assessed as inhibition of cell viability at 50 uM by MTT assay. It is filed as functional. For orientation: Formazan colour is commonly taken as a measure of viable cells.
The subject of series [24] is A549. The series can be described thus: Antitumor activity against human A549 cells assessed as inhibition of cell viability at 100 uM by MTT assay. It is filed as functional.

T1 sequence (P00630 whole entry): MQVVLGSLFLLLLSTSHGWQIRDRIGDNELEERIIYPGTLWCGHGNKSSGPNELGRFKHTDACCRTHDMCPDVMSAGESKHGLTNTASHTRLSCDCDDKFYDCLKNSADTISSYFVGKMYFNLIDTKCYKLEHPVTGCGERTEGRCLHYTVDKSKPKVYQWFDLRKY
Sequence of Prostaglandin G/H synthase 2 (Q05769 whole entry): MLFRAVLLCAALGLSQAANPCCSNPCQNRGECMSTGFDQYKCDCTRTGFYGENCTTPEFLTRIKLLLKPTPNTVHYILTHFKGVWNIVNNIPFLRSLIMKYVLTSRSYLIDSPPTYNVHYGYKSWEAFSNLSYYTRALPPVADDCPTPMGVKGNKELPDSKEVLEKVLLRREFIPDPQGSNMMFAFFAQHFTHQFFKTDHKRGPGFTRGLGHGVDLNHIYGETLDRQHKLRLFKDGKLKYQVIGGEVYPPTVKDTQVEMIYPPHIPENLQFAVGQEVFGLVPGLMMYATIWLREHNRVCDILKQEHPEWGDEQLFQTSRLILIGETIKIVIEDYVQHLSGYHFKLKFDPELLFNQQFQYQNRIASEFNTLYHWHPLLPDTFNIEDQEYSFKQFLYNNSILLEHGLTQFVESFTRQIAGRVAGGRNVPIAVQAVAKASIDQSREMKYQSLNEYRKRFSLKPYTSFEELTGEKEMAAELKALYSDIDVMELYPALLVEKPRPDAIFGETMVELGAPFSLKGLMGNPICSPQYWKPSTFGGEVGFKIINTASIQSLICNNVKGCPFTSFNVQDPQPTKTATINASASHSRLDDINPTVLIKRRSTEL
Sequence of Cyclin-dependent kinase 1/cyclin B1 (P06493 whole entry): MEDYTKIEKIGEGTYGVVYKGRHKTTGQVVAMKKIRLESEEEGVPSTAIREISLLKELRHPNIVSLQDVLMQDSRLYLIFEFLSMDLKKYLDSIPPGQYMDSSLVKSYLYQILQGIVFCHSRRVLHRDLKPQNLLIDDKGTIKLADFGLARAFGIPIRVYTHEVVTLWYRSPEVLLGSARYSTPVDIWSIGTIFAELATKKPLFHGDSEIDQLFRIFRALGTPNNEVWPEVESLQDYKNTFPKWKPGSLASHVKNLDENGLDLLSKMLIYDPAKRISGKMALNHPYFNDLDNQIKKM
Sequence of Cyclin-dependent kinase 1/cyclin B1 (P14635 whole entry, further chain): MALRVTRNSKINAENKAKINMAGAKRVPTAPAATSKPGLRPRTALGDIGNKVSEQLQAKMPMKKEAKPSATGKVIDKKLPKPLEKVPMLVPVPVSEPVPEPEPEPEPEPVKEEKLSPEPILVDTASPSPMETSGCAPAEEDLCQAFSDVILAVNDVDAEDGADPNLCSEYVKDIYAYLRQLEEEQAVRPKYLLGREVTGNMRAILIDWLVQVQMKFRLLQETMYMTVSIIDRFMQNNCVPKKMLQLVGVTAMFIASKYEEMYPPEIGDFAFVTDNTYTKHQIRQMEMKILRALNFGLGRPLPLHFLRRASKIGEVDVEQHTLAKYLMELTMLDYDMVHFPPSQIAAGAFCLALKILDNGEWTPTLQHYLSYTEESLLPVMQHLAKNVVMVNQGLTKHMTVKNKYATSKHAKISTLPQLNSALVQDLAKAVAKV
Sequence of Tyrosinase (P14679 whole entry): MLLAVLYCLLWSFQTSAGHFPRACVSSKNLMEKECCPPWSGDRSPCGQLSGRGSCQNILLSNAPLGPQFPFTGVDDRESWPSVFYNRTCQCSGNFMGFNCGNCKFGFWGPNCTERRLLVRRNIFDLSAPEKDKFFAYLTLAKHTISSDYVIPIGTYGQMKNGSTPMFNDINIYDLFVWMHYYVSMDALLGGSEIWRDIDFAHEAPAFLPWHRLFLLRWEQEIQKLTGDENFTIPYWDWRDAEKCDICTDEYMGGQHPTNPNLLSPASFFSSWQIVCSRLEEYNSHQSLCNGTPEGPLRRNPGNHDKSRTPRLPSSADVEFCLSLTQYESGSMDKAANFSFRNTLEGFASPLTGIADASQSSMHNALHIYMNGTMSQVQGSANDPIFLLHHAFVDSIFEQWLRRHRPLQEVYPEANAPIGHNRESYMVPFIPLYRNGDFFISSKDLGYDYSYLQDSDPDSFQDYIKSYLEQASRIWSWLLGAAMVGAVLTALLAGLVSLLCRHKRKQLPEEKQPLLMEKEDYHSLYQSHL
Sequence of Cyclin-dependent kinase 5/CDK5 activator 1 (Q00535 whole entry): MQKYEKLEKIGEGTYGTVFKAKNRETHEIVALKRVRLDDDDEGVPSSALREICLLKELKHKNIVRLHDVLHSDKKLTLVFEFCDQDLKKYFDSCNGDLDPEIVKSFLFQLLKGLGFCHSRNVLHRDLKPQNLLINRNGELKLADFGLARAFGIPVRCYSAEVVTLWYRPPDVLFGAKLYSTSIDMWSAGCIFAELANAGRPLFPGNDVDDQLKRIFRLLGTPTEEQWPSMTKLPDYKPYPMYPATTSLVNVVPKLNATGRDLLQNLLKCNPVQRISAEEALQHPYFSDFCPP
Sequence of Cyclin-dependent kinase 5/CDK5 activator 1 (Q15078 whole entry, further chain): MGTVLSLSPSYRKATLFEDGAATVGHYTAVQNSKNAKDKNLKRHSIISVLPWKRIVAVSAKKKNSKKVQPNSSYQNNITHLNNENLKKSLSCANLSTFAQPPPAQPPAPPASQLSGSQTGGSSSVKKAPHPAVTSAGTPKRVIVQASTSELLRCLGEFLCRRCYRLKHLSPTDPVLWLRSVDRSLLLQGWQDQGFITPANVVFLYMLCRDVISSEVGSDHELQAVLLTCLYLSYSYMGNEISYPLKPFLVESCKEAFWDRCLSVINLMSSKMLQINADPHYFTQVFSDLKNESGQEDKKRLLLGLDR

Take `CC1(C)OC(c2ccc(S(C)(=O)=O)cc2)=C(c2cccc(F)c2)C1=O`: the IC50 in series [1] is 0.00832 µM. Besides, in the series listed under Rattus norvegicus [2], the ED50 worked out at 0.008 mg/kg/day. The inhibition in vivo at 3 mg/kg in the series on Rattus norvegicus [3] was determined as 47%; in the series on Rattus norvegicus [4], 36%. Further, the UI in series [5] is on record as 1.5.

`CC(C)(C)C(=O)OC(CCCCCCCCCCCCC(OC(=O)C(C)(C)C)C1=CC(=O)OC1OC(=O)Nc1ccccc1)C1=CC(=O)OC1OC(=O)Nc1ccccc1` (stereo unspecified) had an IC50 against Phospholipase A2 [6] of over 1 µM.

`O=C1OC(O)C(/C=C/c2ccccc2)=C1F` (stereo unspecified) registered an IC50 on Phospholipase A2 [7] of 3 µM.

As for `CC1C=C(c2ccc(Cl)c(Cl)c2)C(=O)O1` (stereo unspecified), the MIC in the series on Candida tropicalis was over 125 µM; in series [8], 31.2 µM (≈ 7.6 µg/mL); in the series on Aspergillus fumigatus [9], 7.6 µg/mL (≈ 31.3 µM); with Lichtheimia corymbifera [10] it was 7.6 µg/mL (≈ 31.3 µM); in the series with Candida albicans, 31.2 µM (≈ 7.6 µg/mL); with Trichosporon beigelii, 31.2 µM (≈ 7.6 µg/mL). Further, the minimal inhibitory concentration (MIC) in the series on Aspergillus fumigatus [11] was 7.87 µM (≈ 1.91 µg/mL); with Nakaseomyces glabratus, over 125 µM; in the series with Lichtheimia corymbifera [12], 7.81 µM (≈ 1.9 µg/mL); with Pichia kudriavzevii, over 125 µM.

`CCCCC1=C(Br)/C(=C/Br)OC1=O`: the Activity is on record as 63% in the series on Bacillus subtilis [13] and 25% with Bacillus subtilis [14]. Further, the “inhibition (INH)” value in the series on Escherichia coli is given as 100%.

As for `C/C(=C\c1occ2cc3oc(=O)ccc3cc12)C1=CC(=O)C(C)(C)O1`, the half-maximal inhibitory concentration (IC50) in the series with L1210, in the series on MOLT-4F, in the series on MT4 and in the series with CCRF-CEM was 40 to 79 µM in each case.

For the compound `COc1ccc(C2OC(=O)C(O)=C2I)cc1OC` (stereo unspecified), the IC50 in [15], in series [16] and in series [17] was 10 µM each time.

Consider `CC(C)Cc1ccc(C2=C/C(=C\c3ccc(Cl)cc3Cl)C(=O)O2)cc1`, for which the inhibition in vivo at 20 mg/kg with Rattus norvegicus [18] is 66.1%.

As to `CC1(C)OC(=O)C(Oc2ccc(Br)cn2)=C1c1ccc(S(C)(=O)=O)cc1`, the values for the ED50 in the series filed under Rattus norvegicus [2] and in the series on Rattus norvegicus [19] were 0.2 mg/kg and 0.86 mg/kg, respectively.

Regarding `CC1=C(O)C(=O)CO1`, the 50% inhibitory concentration (IC50) on Tyrosinase stood at 50 µM.

As for `CC(C)Cc1ccc(C(C)C(=O)O)cc1` (stereo unspecified) [IBUPROFEN], the UI in series [20] is recorded as 0.9.

As for `O=C1OC(c2ccc3ccccc3c2)=C/C1=C\c1cc2ccc([N+](=O)[O-])cc2nc1Cl`, in the series with Rattus norvegicus [21], the “inhibition (INH)” value was 56 - 63%. Besides, the UI in series [22] was 0.3.

On to `CC[C@H](C)[C@H](NC1=C(Br)C(=O)O[C@@H]1OC)C(=O)OC`, for which the inhibition at 50 µM in the series on A549 [23] came to 82.7%. Further, in the series with A549 [24], the inhibition at 100 µM came out at 97.2%.

The term IC50 denotes the midpoint of a concentration-inhibition curve. One may read the ED50 as the dose that gives a 50% effect, or the effect in half of the subjects. The inhibition in vivo is the relative decrease from the control value, in per cent. One may read the MIC as the least concentration at which growth counts as inhibited. As usually defined, the inhibition is the share of the control response that was lost under treatment.

(Values after ChEMBL document CHEMBL4393659, “Insights into the chemistry and therapeutic potential of furanones: A versatile pharmacophore” (Eur J Med Chem, 2019).)
